pIC50: −log10 of the molar value. Like-named read-outs stand apart in the source and are kept apart here.

For assay [1], the target named is T1, Arginase (Homo sapiens, UniProt P05089).
T1 sequence (P05089 1-322): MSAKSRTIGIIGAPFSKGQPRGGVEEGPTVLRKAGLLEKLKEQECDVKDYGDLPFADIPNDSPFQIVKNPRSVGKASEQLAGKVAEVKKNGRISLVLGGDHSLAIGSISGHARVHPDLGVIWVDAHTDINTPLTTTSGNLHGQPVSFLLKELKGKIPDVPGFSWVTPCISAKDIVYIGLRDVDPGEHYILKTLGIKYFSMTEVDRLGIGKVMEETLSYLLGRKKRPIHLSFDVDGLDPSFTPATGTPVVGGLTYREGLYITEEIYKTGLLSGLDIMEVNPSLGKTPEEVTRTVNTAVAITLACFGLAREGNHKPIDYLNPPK
In words: Arginase Thioornithine Generating Assay (TOGA). It counts as biochemical. On the procedure:
Arginase Thioornithine Generating Assay (TOGA)
Compounds were serially diluted in ten 3-fold steps in DMSO starting from 10 mM DMSO stocks. Compound dilutions or DMSO alone were then dispensed from the dilution plate into a Greiner black 384-well assay plate (catalog #781086) using an Echo 555 acoustic liquid handler (Labcyte).
Arginase protein was recombinantly expressed in Escherichia coli. Purified protein was then diluted in assay buffer (50 mM Tris pH 7.5, 50 mM NaCl, 1 mM manganese chloride, 0.0500 bovine serum albumin to obtain a final Arginase concentration of 1.88 nM. Arginase solution ([…])) or buffer alone (20 μL) were dispensed to wells of the assay plate using a BioRAPTR liquid dispenser (Beckman Coulter). Assay plates containing compound and arginase enzyme were incubated at room temperature for 30 minutes. Afterwards, 5 µL of 2.5 mM thioarginine (Cayman Chemicals) in assay buffer were added to each well of the assay plate using a BioRAPTR liquid dispenser. Plates were incubated at room temperature for 60 minutes and reactions were quenched by addition of 15 μL of 200 uM 7-Diethylamine-3-(4-maleimidophenyl)-4-methyl coumarin (Sigma Chemical) in 70% ethanol. Plates were briefly shaken to mix and the fluorescence was measured in an Spectramax plate reader (Molecular Devices) with a 410 nm excitation wavelength and an 490 nm emission wavelength.
Potencies were calculated by […] least squares fit to the four parameter logistic IC50 equation.

Assay [2] deals with opossum internal anal sphincter muscle. The note with it: cited from earlier work.
Assay [3] concerns allergic asthma model. The note with it: nebulizer treatment of guinea pigs; cited from earlier work.
For assay [4], the system named is penile corpus cavernosum. The settings on record: rabbit and human penile corpus cavernosum; cited from earlier work.
For assay [5], the system named is live male rabbits. The note with it: cited from earlier work.
Assay [6] relates to corpus cavernosum of the diabetic man. The note with it: ex vivo; cited from earlier work.
The subject of assay [7] is live female rabbits. The settings on record: cited from earlier work.
For assay [8], the system named is experimental autoimmune encephalomyelitis. The note with it: experimental autoimmune encephalomyelitis animal model; cited from earlier work.
Where [9] appears, read: Top Dose 10000 nM, read-out: Percent Inhibition at Top Dose.
[10] abbreviates: read-out: Percent Inhibition at Top Dose, Top Dose 10000 nM.

As for `O=C(O)C12CNCC1(CCCB(O)O)CCN2` (racemic) [Example 6, racemic 3a-(3-boronopropyl)hexahydropyrrolo[3,4-b]pyrrole-6a(H)-carboxylic acid], in assay [1] (setting [9]), the inhibition (commonly the relative decrease from the control value, in per cent) at 10 µM stood at 91.9%. Same read-out and setting: for `CN1CC2(CCCB(O)O)CCNC2(C(=O)O)C1` (racemic) [Example 7, Racemic 3a-(3-boronopropyl)-5-methylhexahydropyrrolo[3,4-b]pyrrole-6a(1H)-carboxylic acid] the value was 85.1%.

As to `N[C@@H](CCCCB(O)O)C(=O)O` [ABH, (S)-2-amino-6-boronohexanoic acid], the “relaxation of internal anal sphincter muscle” value in assay [2] is “relax this muscle”. The airway hyperresponsiveness entry in assay [3] was “prevents airway hyperresponsiveness”. In addition, the “nitric oxide-dependent relaxation of corpus cavernosum tissue” value in assay [4] is on record as “enhances the nitric oxide-dependent relaxation of this tissue”. The erectile response entry in assay [5] is recorded as “enhances the erectile response”. In assay [6], the nitric oxide biosynthesis result is “restores nitric oxide biosynthesis”. Moreover, the “engorgement response in the genitalia” value in assay [7] is recorded as “enhances the engorgement response”. Besides, the disease score result in assay [8] was “improves the disease score”. For the molecule `C[C@H](N)C(=O)N1C[C@@]2(CCCB(O)O)CCN[C@@]2(C(=O)O)C1` [Example 1, (3aR,6aR)-5-(L-alanyl)-3a-(3-boronopropyl)hexahydropyrrolo[3,4-b]pyrrole-6a(H)-carboxylic acid], the inhibition at 10 µM in assay [1] (setting [10]) worked out at 99.7%. For `NCC(=O)N1C[C@@]2(CCCB(O)O)CCN[C@@]2(C(=O)O)C1` [Example 3, (3aR,6aR)-3a-(3-boronopropyl)-5-glycylhexahydropyrrolo[3,4-b]pyrrole-6a(H)-carboxylic acid], the inhibition at 10 µM in assay [1] (setting [10]) is 89.5%. In the case of `O=C(O)[C@]12CNC[C@@]1(CCCB(O)O)CCN2` [Example 4, (3aR,6aR)-3a-(3-boronopropyl)hexahydropyrrolo[3,4-b]pyrrole-6a(1H)-carboxylic acid], the inhibition at 10 µM in assay [1] (setting [9]) came to 98.2%. Further, the pIC50 – broadly, the IC50 on a negative log10 scale, so that one unit is a factor of ten – in assay [1] (recombinant arginase 1.88 nM, thioarginine substrate, fluorescence readout) is 7.34. `O=C(O)[C@@]12CNC[C@]1(CCCB(O)O)CCN2` [Example 5, (3aS,6aS)-3a-(3-boronopropyl)hexahydropyrrolo[3,4-b]pyrrole-6a(H)-carboxylic acid]: the inhibition at 10 µM in assay [1] (setting [9]) amounted to 93%. With `CC(C)[C@H](N)C(=O)N1C[C@@]2(CCCB(O)O)CCN[C@@]2(C(=O)O)C1` [Example 8, (3aR,6aR)-5-(L-valyl)-3a-(3-boronopropyl)hexahydropyrrolo[3,4-b]pyrrole-6a(H)-carboxylic acid], the inhibition at 10 µM in assay [1] (setting [9]) was determined as 99%. With `N[C@@H](CO)C(=O)N1C[C@@]2(CCCB(O)O)CCN[C@@]2(C(=O)O)C1` [Example 9, (3aR,6aR)-5-(L-seryl)-3a-(3-boronopropyl)hexahydropyrrolo[3,4-b]pyrrole-6a(1H)-carboxylic acid], in assay [1] (setting [10]), the inhibition at 10 µM is 97.3%. Regarding `O=C([C@@H]1CCCN1)N1C[C@@]2(CCCB(O)O)CCN[C@@]2(C(=O)O)C1` [Example 10, (3aR,6aR)-5-(L-prolyl)-3a-(3-boronopropyl)hexahydropyrrolo[3,4-b]pyrrole-6a(1H)-carboxylic acid], the inhibition at 10 µM in assay [1] (setting [10]) came out at 96.6%. In the case of `O=C(O)[C@]12CNC[C@@]1(CCCB(O)O)CN2` [Example 11, (1S,5R)-1-(3-boronopropyl)-3,6-diazabicyclo[3.2.0]heptane-5-carboxylic acid], the inhibition at 10 µM in assay [1] (setting [9]) was determined as 99.5%. In the case of `NC[C@@H]1NC[C@]2(C(=O)O)NCC[C@]12CCCB(O)O` [Example 12, (3aR,4R,6aR)-4-(aminomethyl)-3a-(3-boronopropyl)hexahydropyrrolo[3,4-b]pyrrole-6a(1H)-carboxylic acid], in assay [1] (setting [10]), the inhibition at 10 µM was 100%. Consider `CSCC[C@H](N)C(=O)N1C[C@@]2(CCCB(O)O)CCN[C@@]2(C(=O)O)C1` [Example 13], for which the inhibition at 10 µM in assay [1] (setting [9]) turned out to be 102%.

As to `CC(C)(C)[C@H](N)C(=O)N1C[C@@]2(CCCB(O)O)CCN[C@@]2(C(=O)O)C1` [Example 14], the inhibition at 10 µM in assay [1] (setting [9]) amounted to 102%. For the molecule `CC(C)C[C@H](N)C(=O)N1C[C@@]2(CCCB(O)O)CCN[C@@]2(C(=O)O)C1` [Example 15], the inhibition at 10 µM in assay [1] (setting [9]) came to 96.7%.

Turning to `CC(C)(N)C(=O)N1C[C@@]2(CCCB(O)O)CCN[C@@]2(C(=O)O)C1` [Example 16], the inhibition at 10 µM in assay [1] (setting [9]) was 97.3%. Same read-out and setting: to `COC[C@H](N)C(=O)N1C[C@@]2(CCCB(O)O)CCN[C@@]2(C(=O)O)C1` [Example 17] belongs 97.8%; to `C[C@H](N)C(=O)N1C[C@@]2(CCCB3O[C@@H]4C[C@@H]5C[C@@H](C5(C)C)[C@]4(C)O3)CCN[C@@]2(C(=O)O)C1` [Example 18, (3aR,6aR)-5-(L-alanyl)-3a-(3-((3aS,4S,6S,7aR)-3a,5,5-trimethylhexahydro-4,6-methanobenzo[d][1,3,2]dioxaborol-2-yl)propyl)hexahydropyrrolo[3,4-b]pyrrole-6a(1H)-carboxylic acid], 97.9%.

The values above are taken from patent US12240867B2, “Arginase inhibitors and methods of use” (Merck Sharp & Dohme LLC, priority 2018, dated 2025).
